Experimental data: patent publication US20250302815A1, “PROTEIN TYROSINE PHOSPHATASE TARGETING LIGANDS” (CALICO LIFE SCIENCES LLC, priority 2021, published 2025)

Legend:
PTPN2 (B16F10.4 cells) = target: T1, PTPN2 (B16F10.4 cells) (Mus musculus, UniProt Q06180); test: HiBiT Degradation B16F10.4 PTPN2; assay type: cell-based; conditions: 24.0 hours
T1 construct: HiBiT; host or cells: B16F10.4
T1 sequence (Q06180 1-406): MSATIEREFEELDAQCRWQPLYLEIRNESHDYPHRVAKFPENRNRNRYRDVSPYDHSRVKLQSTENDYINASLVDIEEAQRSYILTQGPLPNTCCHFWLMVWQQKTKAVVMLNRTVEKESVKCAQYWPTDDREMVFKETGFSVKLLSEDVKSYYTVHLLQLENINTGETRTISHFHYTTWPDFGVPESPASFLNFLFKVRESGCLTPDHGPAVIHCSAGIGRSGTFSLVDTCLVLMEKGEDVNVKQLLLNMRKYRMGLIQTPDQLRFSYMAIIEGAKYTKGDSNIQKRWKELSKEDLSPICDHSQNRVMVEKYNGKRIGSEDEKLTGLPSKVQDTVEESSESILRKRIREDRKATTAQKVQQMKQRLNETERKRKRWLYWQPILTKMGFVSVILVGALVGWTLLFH

[1] = target: T2, PTPN2 (HiBIT-PTPN2 in 293T.109 cells) (Homo sapiens, UniProt P17706); test: HiBiT Degradation 293T.109 PTPN2 (Nano-Glo HiBiT Lytic Assay); assay type: cell-based; conditions: 24.0 hours
T2 construct: expressed in transfected cells; host or cells: 293T.109 (293T WT from ATCC)
T2 sequence (P17706 1-415): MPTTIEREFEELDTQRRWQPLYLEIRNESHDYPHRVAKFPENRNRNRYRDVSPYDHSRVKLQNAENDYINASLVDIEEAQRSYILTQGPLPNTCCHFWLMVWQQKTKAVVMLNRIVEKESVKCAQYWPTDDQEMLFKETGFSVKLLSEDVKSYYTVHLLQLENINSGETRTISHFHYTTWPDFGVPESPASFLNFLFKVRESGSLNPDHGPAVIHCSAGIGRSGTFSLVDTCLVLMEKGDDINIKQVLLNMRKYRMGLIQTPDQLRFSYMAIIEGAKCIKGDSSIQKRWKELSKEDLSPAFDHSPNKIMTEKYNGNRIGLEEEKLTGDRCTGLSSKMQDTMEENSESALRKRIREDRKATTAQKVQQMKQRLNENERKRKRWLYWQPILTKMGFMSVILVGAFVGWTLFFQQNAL
Outline: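 293T.109 cells with ectopic N-terminal HiBiT-tagged PTPN2 (5000/well) exposed to compounds for 24 h at 37 °C, 5% CO2; 11-point half-log titration from 10 μM top, duplicates. Remaining HiBiT-PTPN2 read as luminescence with Nano-Glo HiBiT lytic reagent, normalised to untreated cells (0%) and reagent-free wells.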

| Compound | DC50 (PTPN2 (B16F10.4 cells)) [nM] | DC50 [1] [nM] |
| --- | --- | --- |
| CC1(C)C[C@@H](Nc2cccc(-c3sc(C(=O)O)c(OCC(=O)O)c3Cl)c2)CCN1S(=O)(=O)Cc1cccc(NC(=O)C2CN(C(=O)CNc3cccc4c3CN([C@H]3CCC(=O)NC3=O)C4=O)C2)c1 (single isomer, unassigned) [Example 44b] | 200 to 1000 | < 50 |
| O=C(O)COc1c(C(=O)O)sc(-c2cccc(NC3CCN(S(=O)(=O)Cc4cccc(NC(=O)CCN5CCC(Nc6cccc7c6CN(C6CCC(=O)NC6=O)C7=O)CC5)c4)CC3)c2)c1Cl (stereo not shown) [Example 50, 3-(carboxymethoxy)-4-chloro-5-[3-[[1-[[3-[3-[4-[[2-(2,6-dioxo-3-piperidyl)-1-oxo-isoindolin-4-yl]amino]-1-piperidyl]propanoylamino]phenyl]methylsulfonyl]-4-piperidyl]amino]phenyl]thiophene-2-carboxylic acid] | ≥ 1000 | < 50 |
| Cn1nc(C2CCC(=O)NC2=O)c2ccc(C3CCN(C(=O)Nc4cccc(CS(=O)(=O)N5CC[C@@H](Nc6cccc(-c7sc(C(=O)O)c(OCC(=O)O)c7Cl)c6)CC5(C)C)c4)CC3(F)F)cc21 (stereo partly drawn) [Example 185, 3-(carboxymethoxy)-4-chloro-5-(3-(((4R)-1-((3-(4-(3-(2,6-dioxopiperidin-3-yl)-1-methyl-1H-indazol-6-yl)-3,3-difluoropiperidine-1-carboxamido)benzyl)sulfonyl)-2,2-dimethylpiperidin-4-yl)amino)phenyl)thiophene-2-carboxylic acid] | < 50 | 200 to 1000 |
| Cn1c(=O)n(C2CCC(=O)NC2=O)c2ccc(C3CCN(C(=O)Nc4cccc(CS(=O)(=O)N5CC[C@H](Nc6cccc(-c7sc(C(=O)O)c(OCC(=O)O)c7Cl)c6)CC5(C)C)c4)CC3(F)F)cc21 (stereo partly drawn) [Example 147, 3-(carboxymethoxy)-4-chloro-5-[3-[[(4S)-1-[[3-[[4-[1-(2,6-dioxo-3-piperidyl)-3-methyl-2-oxo-benzimidazol-5-yl]-3,3-difluoro-piperidine-1-carbonyl]amino]phenyl]methylsulfonyl]-2,2-dimethyl-4-piperidyl]amino]phenyl]thiophene-2-carboxylic acid] | < 50 | < 50 |
| C[C@@H]1CN(C(=O)Nc2cccc(CS(=O)(=O)N3CC[C@H](Nc4cccc(-c5sc(C(=O)O)c(OCC(=O)O)c5Cl)c4)CC3(C)C)c2)CCN1c1ccc2c(c1)n(C)c(=O)n2C1CCC(=O)NC1=O (stereo partly drawn) [Example 209, 3-(carboxymethoxy)-4-chloro-5-[3-[[(4S)-1-[[3-[[(3R)-4-[1-(2,6-dioxo-3-piperidyl)-3-methyl-2-oxo-benzimidazol-5-yl]-3-methyl-piperazine-1-carbonyl]amino]phenyl]methylsulfonyl]-2,2-dimethyl-4-piperidyl]amino]phenyl]thiophene-2-carboxylic acid] | 50 to 200 | 50 to 200 |
| Cn1c(=O)n(C2CCC(=O)NC2=O)c2ccc(C3CCN(C(=O)Nc4cccc(CS(=O)(=O)N5CC[C@H](Nc6cccc(-c7sc(C(=O)O)c(OCC(=O)O)c7Cl)c6)CC5(C)C)c4F)CC3)cc21 (stereo partly drawn) [Example 125, 3-(carboxymethoxy)-4-chloro-5-[3-[[(4S)-1-[[3-[[4-[1-(2,6-dioxo-3-piperidyl)-3-methyl-2-oxo-benzimidazol-5-yl]piperidine-1-carbonyl]amino]-2-fluoro-phenyl]methylsulfonyl]-2,2-dimethyl-4-piperidyl]amino]phenyl]thiophene-2-carboxylic acid] | < 50 | 50 to 200 |
| CC1(C)C[C@@H](Nc2cccc(-c3sc(C(=O)O)c(OCC(=O)O)c3Cl)c2)CCN1S(=O)(=O)Cc1cccc(NC(=O)C2CN(C(=O)COc3cccc4c3CN(C3CCC(=O)NC3=O)C4=O)C2)c1 (stereo partly shown) [Example 74] | ≥ 1000 | < 50 |
| O=C(O)COc1c(C(=O)O)sc(-c2cccc(NC3CCN(S(=O)(=O)Cc4cccc(NC(=O)CN5CCC(c6ccc7c(c6)CN(C6CCC(=O)NC6=O)C7=O)CC5)c4)CC3)c2)c1Cl (stereo not shown) [Example 45] | 200 to 1000 | 200 to 1000 |

The next lines start with the values.

| DC50 (PTPN2 (B16F10.4 cells)) [nM] | DC50 [1] [nM] | Compound |
| --- | --- | --- |
| 200 to 1000 | 200 to 1000 | Cn1c(=O)n(C2CCC(=O)NC2=O)c2ccc(N3CCC(O)(CC(=O)Nc4cccc(CS(=O)(=O)N5CC[C@@H](Nc6cccc(-c7sc(C(=O)O)c(OCC(=O)O)c7Cl)c6)CC5(C)C)c4)CC3)cc21 (stereo partly drawn) [Example 179, 3-(carboxymethoxy)-4-chloro-5-(3-(((4R)-1-((3-(2-(1-(1-(2,6-dioxopiperidin-3-yl)-3-methyl-2-oxo-2,3-dihydro-1H-benzo[d]imidazol-5-yl)-4-hydroxypiperidin-4-yl)acetamido)benzyl)sulfonyl)-2,2-dimethylpiperidin-4-yl)amino)phenyl)thiophene-2-carboxylic acid] |
| ≥ 1000 | 200 to 1000 | CC1(C)C[C@@H](Nc2cccc(-c3sc(C(=O)O)c(OCC(=O)O)c3Cl)c2)CCN1S(=O)(=O)Cc1cccc(NC(=O)CCCNC(=O)CNc2cccc3c2CN(C2CCC(=O)NC2=O)C3=O)c1 (stereo partly drawn) [Example 28, 3-(carboxymethoxy)-4-chloro-5-(3-(((4S)-1-((3-(4-(2-((2-(2,6-dioxopiperidin-3-yl)-1-oxoisoindolin-4-yl)amino)acetamido)butanamido)benzyl)sulfonyl)-2,2-dimethylpiperidin-4-yl)amino)phenyl)thiophene-2-carboxylic acid] |
| 50 to 200 | 50 to 200 | CC1(C)C[C@@H](Nc2cccc(-c3sc(C(=O)O)c(OCC(=O)O)c3Cl)c2)CCN1S(=O)(=O)Cc1cccc(NCCNCCCc2ccc3c4c(cccc24)C(=O)N3C2CCC(=O)NC2=O)c1 (stereo partly shown) [Example 201] |
| ≥ 1000 | 50 to 200 | CC1(C)C[C@H](Nc2cccc(-c3sc(C(=O)O)c(OCC(=O)O)c3Cl)c2)CCN1S(=O)(=O)Cc1ccc(F)c(NC(=O)C2CN(C(=O)CNc3cccc4c3CN(C3CCC(=O)NC3=O)C4=O)C2)c1 (stereo partly shown) [Example 108] |
| ≥ 1000 | 200 to 1000 | CC(C)(c1cccc(NC(=O)CCCCCCNC(=O)CNc2ccc3c(c2)CN(C2CCC(=O)NC2=O)C3=O)c1)S(=O)(=O)N1CCC(Nc2cccc(-c3sc(C(=O)O)c(OCC(=O)O)c3Cl)c2)CC1 (stereo not shown) [Example 39, 3-(carboxymethoxy)-4-chloro-5-[3-[[1-[1-[3-[7-[[2-[[2-(2,6-dioxo-3-piperidyl)-1-oxo-isoindolin-5-yl]amino]acetyl]amino]heptanoylamino]phenyl]-1-methyl-ethyl]sulfonyl-4-piperidyl]amino]phenyl]thiophene-2-carboxylic acid] |
| < 50 | 50 to 200 | Cn1c(=O)n(C2CCC(=O)NC2=O)c2ccc(C3CCN(C(=O)Nc4cc(CS(=O)(=O)N5CC[C@@H](Nc6cccc(-c7sc(C(=O)O)c(OCC(=O)O)c7Cl)c6)CC5(C)C)ccc4F)CC3)cc21 (stereo partly shown) [Example 120] |
| < 50 | < 50 | CC1(C)C[C@@H](Nc2cccc(-c3sc(C(=O)O)c(OCC(=O)O)c3Cl)c2)CCN1S(=O)(=O)Cc1cccc(N2CCN(C3CCN(c4ccc5c6c(cccc46)C(=O)N5C4CCC(=O)NC4=O)CC3)C2=O)c1 (stereo partly drawn) [Example 189, 3-(carboxymethoxy)-4-chloro-5-(3-(((4S)-1-((3-(3-(1-(1-(2,6-dioxopiperidin-3-yl)-2-oxo-1,2-dihydrobenzo[cd]indol-6-yl)piperidin-4-yl)-2-oxoimidazolidin-1-yl)benzyl)sulfonyl)-2,2-dimethylpiperidin-4-yl)amino)phenyl)thiophene-2-carboxylic acid] |
| 50 to 200 | 50 to 200 | CC1(C)C[C@@H](Nc2cccc(-c3sc(C(=O)O)c(OCC(=O)O)c3Cl)c2)CCN1S(=O)(=O)Cc1cccc(NC(=O)N2CCC[C@@H](c3ccc4c5c(cccc35)N(C3CCC(=O)NC3=O)C4=O)CC2)c1 (stereo partly drawn) [Example 224, 3-(carboxymethoxy)-4-chloro-5-(3-(((4S)-1-((3-((4R)-4-(1-(2,6-dioxopiperidin-3-yl)-2-oxo-1,2-dihydrobenzo[cd]indol-5-yl)azepane-1-carboxamido)benzyl)sulfonyl)-2,2-dimethylpiperidin-4-yl)amino)phenyl)thiophene-2-carboxylic acid] |
| 50 to 200 | 50 to 200 | CC(C)n1c(=O)n(C2CCC(=O)NC2=O)c2ccc(C3CCN(C(=O)Nc4cccc(CS(=O)(=O)N5CC[C@H](Nc6cccc(-c7sc(C(=O)O)c(OCC(=O)O)c7Cl)c6)CC5(C)C)c4)CC3)cc21 (single isomer, unassigned) [Example 87b] |
